Laboratory results published in publication PMC6851892 (Clinical Pharmacology in Drug Development, 2019).

What was measured:
[1] = tested on: CYP enzymes or transporters; details: in vitro; cited from earlier work
[2] = assay type: in vivo, human (healthy subjects); details: human, plasma, oral
[3] = cited from earlier work
[4] = cited from earlier work; remark: listed apart in the source
[5] = primary circulating metabolites of ertugliflozin; cited from earlier work
[6] = cited from earlier work; remark: listed apart in the source
[7] = oral radioactive ertugliflozin dose

Row | Tmax [2] | half-life [2] | Compound | Inhibition or induction of CYP enzymes or transporters [1] | Unmetabolized drug recovered in urine, % of the administered dose [3] | AUC dose proportionality ([3]; dose range of 0.5 to 300 mg) | Median time to maximum plasma concentration (Tmax) ([3]; fed state, oral) | Excretion of radioactivity in feces, % of the dose [3, 7] | Excretion of radioactivity in urine, % of the dose [3, 7] | Biopharmaceutical Classification System class [4] | Pharmacological activity [5] | Excreted in feces [6] | Excreted mostly unmetabolized in urine [6] | Renal clearance [6] | AUC dose dependence ([6]; healthy subjects)
1 | ~1 h | 11.2 to 13.8 h | CCOc1ccc(Cc2cc([C@]34OC[C@](CO)(O3)[C@@H](O)[C@H](O)[C@H]4O)ccc2Cl)cc1 [Ertugliflozin] | do not inhibit or induce CYP enzymes or transporters | 1.5% | increases in a dose‐proportional manner | ~2 h | 40.9% | 50.2% | class 1 | – | – | – | – | –
2 | – | – | CCOc1ccc(Cc2cc([C@]34OC[C@](CO)(O3)[C@@H](O)[C@H](O[C@@H]3O[C@H](C(=O)O)[C@@H](O)[C@H](O)[C@H]3O)[C@H]4O)ccc2Cl)cc1 [M5c, 3‐O‐β glucuronide] | – | – | – | – | – | – | – | pharmacologically inactive | – | – | – | –
3 | 2.2 to 4 h | 11.2 to 12.5 h | N[C@@H](CC(=O)N1CCn2c(nnc2C(F)(F)F)C1)Cc1cc(F)c(F)cc1F [Sitagliptin] | – | – | – | – | – | – | class 1 | – | 13% | 87% | approximately 388 mL/min | increases in an approximately dose‐dependent manner
